Reference: patent US20230203043A1, “NOVEL IMIDAZOPYRAZINE DERIVATIVES” (Hoffmann-La Roche Inc., priority 2020, published 2023)
Structures can show the parent of a compound that is named as a salt.

Each molecule was assayed on Acinetobacter baumannii ATCC17961 (assay: Antimicrobial susceptibility testing: 90% growth inhibitory concentration (IC90) determination in Iso-Sensitest broth, OD600 growth). Settings: Acinetobacter baumannii, ATCC17961, 16 h, read-out: A. baumannii ATCC 17961 IC90 (uM), strain ATCC 17961, OD600 growth over 16 h.
Assay type: cell-based
Outline: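 Growth inhibition is calculated during the logarithmic phase from OD600 readings taken every 20 minutes across 16 h at 35±2° C. Bacteria at ~5×10^(5) CFU/ml face twofold dilution series (e.g. 50 to 0.097 μM final).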
Work on `CCc1cc(Nc2nccn3c(-c4cn(CC#N)nc4C(F)(F)F)cnc23)ccc1C(=O)N[C@H](C)C(=O)N1CC[C@H](N)C1` [Example 736, N-[(1R)-2-[(3S)-3-aminopyrrolidin-1-yl]-1-methyl-2-oxo-ethyl]-4-[[3-[1-(cyanomethyl)-3-(trifluoromethyl)pyrazol-4-yl]imidazo[1,2-a]pyrazin-8-yl]amino]-2-ethyl-benzamide formate] yielded an IC90 of 0.49 µM.
Molecule `CCc1cc(Nc2nccn3c(-c4cn(CC(F)F)nc4C(F)(F)F)cnc23)ccc1C(=O)NCC(=O)N1CC2(CNC2)C1` [Example 526, N-[2-(2,6-diazaspiro[3.3]heptan-2-yl)-2-oxo-ethyl]-4-[[3-[1-(2,2-difluoroethyl)-3-(trifluoromethyl)pyrazol-4-yl]imidazo[1,2-a]pyrazin-8-yl]amino]-2-ethyl-benzamide formate] has an IC90 of 0.306 µM.
For `N#CCn1cc(-c2cnc3c(Nc4ccc(C(=O)N5CCN(C(=O)C6CC(N)C6)CC5)c(Cl)c4)nccn23)c(C(F)(F)F)n1` (stereo not shown) [Example 189, 2-[4-[8-[4-[4-(3-aminocyclobutanecarbonyl)piperazine-1-carbonyl]-3-chloroanilino]imidazo[1,2-a]pyrazin-3-yl]-3-(trifluoromethyl)pyrazol-1-yl]acetonitrile formate], the IC90 was 0.204 µM.
`Cc1cc(Nc2nccn3c(-c4cn(CC#N)nc4C(F)(F)F)cnc23)ccc1C(=O)N1CCN(C(=O)[C@@H]2C[C@](C)(O)CN2)CC1` [Example 424, formic acid; 2-[4-[8-[4-[4-[(2S,4S)-4-hydroxy-4-methylpyrrolidine-2-carbonyl]piperazine-1-carbonyl]-3-methylanilino]imidazo[1,2-a]pyrazin-3-yl]-3-(trifluoromethyl)pyrazol-1-yl]acetonitrile] was tested, and the IC90 was 0.685 µM.
Molecule `CCc1cc(Nc2nccn3c(-c4cn(CC5CCC5)nc4C(F)(F)F)cnc23)ccc1C(=O)NCCOCCN` [Example 303, N-[2-(2-aminoethoxy)ethyl]-4-[[3-[1-(cyclobutylmethyl)-3-(trifluoromethyl)pyrazol-4-yl]imidazo[1,2-a]pyrazin-8-yl]amino]-2-ethylbenzamide formate] has an IC90 of 0.201 µM.
Molecule `CCc1cc(Nc2nccn3c(-c4c[nH]nc4C(F)(F)F)cnc23)ccc1C(=O)NC1CC2(CNC2)C1` [Example 514, 2-ethyl-N-(2-azaspiro[3.3]heptan-6-yl)-4-((3-(3-(trifluoromethyl)-1H-pyrazol-4-yl)imidazo[1,2-a]pyrazin-8-yl)amino)benzamide formate] has an IC90 of 0.803 µM.
`CCc1cc(Nc2nccn3c(-c4cn(C(C)C#N)nc4C(F)(F)F)cnc23)ccc1C(=O)NCC1CC1N` (stereo not shown) [Example 700, N-((2-aminocyclopropyl)methyl)-4-((3-(1-(1-cyanoethyl)-3-(trifluoromethyl)-1H-pyrazol-4-yl)imidazo[1,2-a]pyrazin-8-yl)amino)-2-ethylbenzamide formate] gave an IC90 of 0.382 µM.
Molecule `CCc1cc(Nc2nccn3c(-c4c[nH]nc4C(F)(F)F)cnc23)ccc1C(=O)NCCNC(=O)[C@@H]1C[C@@](O)(CC)CN1` [Example 435, (2S,4S)-4-ethyl-N-[2-[[2-ethyl-4-[[3-[3-(trifluoromethyl)-1H-pyrazol-4-yl]imidazo[1,2-a]pyrazin-8-yl]amino]benzoyl]amino]ethyl]-4-hydroxypyrrolidine-2-carboxamide formate] has an IC90 of 2.69 µM.
In the case of `CCc1cc(Nc2nccn3c(-c4cn(CC(O)CCO)nc4C(F)(F)F)cnc23)ccc1C(=O)NCCOCCN` (stereo not shown) [Example 315, N-[2-(2-aminoethoxy)ethyl]-4-[[3-[1-(2,4-dihydroxybutyl)-3-(trifluoromethyl)pyrazol-4-yl]imidazo[1,2-a]pyrazin-8-yl]amino]-2-ethylbenzamide formate], the IC90 is reported as 1.46 µM.

Same assay, conditions: Acinetobacter baumannii, ATCC17961, 16 h, strain ATCC 17961, OD600 growth over 16 h, read-out: A. baumannii ATCC 17961 IC90
Work on `N#CCn1cc(-c2cnc3c(Nc4ccc(C(=O)N5CCN(C(=O)[C@@H]6CCCN6)CC5)c(Cl)c4)nccn23)c(C(F)(F)F)n1` [Example 210, 2-[4-[8-[3-chloro-4-[4-[(2S)-pyrrolidine-2-carbonyl]piperazine-1-carbonyl]anilino]imidazo[1,2-a]pyrazin-3-yl]-3-(trifluoromethyl)pyrazol-1-yl]acetonitrile] yielded an IC90 of 0.174 µM.
With `CCc1cc(Nc2nccn3c(-c4cn(CC(F)F)nc4C(F)F)cnc23)ccc1C(=O)N[C@H]1C[C@@H](N)C1` [Example 539, N-((1s,3s)-3-aminocyclobutyl)-4-((3-(1-(2,2-difluoroethyl)-3-(difluoromethyl)-1H-pyrazol-4-yl)imidazo[1,2-a]pyrazin-8-yl)amino)-2-ethylbenzamide] the IC90 was 0.461 µM.
`C[C@@H](NC(=O)c1ccc(Nc2nccn3c(-c4cn(CC#N)nc4C(F)(F)F)cnc23)cc1Cl)C(=O)N[C@H]1CCNC1` [Example 710, 2-chloro-4-[[3-[1-(cyanomethyl)-3-(trifluoromethyl)pyrazol-4-yl]imidazo[1,2-a]pyrazin-8-yl]amino]-N-[(1R)-1-methyl-2-oxo-2-[[(3S)-pyrrolidin-3-yl]amino]ethyl] benzamide formate] gave an IC90 of 0.408 µM.
For `Cc1cc(Nc2nccn3c(-c4cn(CC#N)nc4C(F)(F)F)cnc23)cc(F)c1C(=O)N[C@H](C)CNC(=O)[C@@H]1C[C@@H](O)CN1` [Example 769, (2S,4R)-N-((R)-2-(4-(3-(1-(cyanomethyl)-3-(trifluoromethyl)-1H-pyrazol-4-yl)imidazo[1,2-a]pyrazin-8-yl)amino)-2-fluoro-6-methylbenzamido)propyl)-4-hydroxypyrrolidine-2-carboxamide formate], the IC90 was 0.928 µM.
For `NCCNC(=O)c1ccc(Nc2nccn3c(-c4c[nH]nc4C(F)(F)F)cnc23)cc1Cl` [Example 363, N-(2-aminoethyl)-2-chloro-4-[[3-[3-(trifluoromethyl)-1H-pyrazol-4-yl]imidazo[1,2-a]pyrazin-8-yl]amino]benzamide], the IC90 was 0.738 µM.
With `N[C@H]1C[C@@H](NC(=O)N2CCN(C(=O)c3ccc(Nc4nccn5c(-c6cn(CC(F)F)nc6C(F)(F)F)cnc45)cc3Cl)CC2)C1` [Example 585, N-((1s,3s)-3-aminocyclobutyl)-4-(2-chloro-4-((3-(1-(2,2-difluoroethyl)-3-(trifluoromethyl)-1H-pyrazol-4-yl)imidazo[1,2-a]pyrazin-8-yl)amino)benzoyl) piperazine-1-carboxamide formate] the IC90 was 0.325 µM.
`CCc1cc(Nc2nccn3c(-c4cn(CC(F)F)nc4C(F)F)cnc23)ccc1C(=O)N1CCN(C(=O)CN)CC1` [Example 766, 2-amino-1-(4-(4-((3-(1-(2,2-difluoroethyl)-3-(difluoromethyl)-1H-pyrazol-4-yl)imidazo[1,2-a]pyrazin-8-yl)amino)-2-ethylbenzoyl)piperazin-1-yl)ethan-1-one] gave an IC90 of 0.903 µM.
Molecule `CNC(=O)c1ccc(Nc2nccn3c(-c4cn(C5CNC5)nc4C(F)(F)F)cnc23)cc1Cl` [Example 348, 4-[[3-[1-(azetidin-3-yl)-3-(trifluoromethyl)pyrazol-4-yl]imidazo[1,2-a]pyrazin-8-yl]amino]-2-chloro-N-methylbenzamide hydrochloride] has an IC90 of 1.55 µM.
`CCc1cc(Nc2nccn3c(-c4cn(CC#N)nc4C(F)(F)F)cnc23)ccc1C(=O)N[C@H](C)CNC(=O)[C@@H]1C[C@@H](O)CN1` [Example 712, (2S,4R)-N-((R)-2-(4-((3-(1-(cyanomethyl)-3-(trifluoromethyl)-1H-pyrazol-4-yl)imidazo[1,2-a]pyrazin-8-yl)amino)-2-ethylbenzamido)propyl)-4-hydroxypyrrolidine-2-carboxamide] was tested, and the IC90 was 0.41 µM.
`C[C@H](N)C(=O)N1CCN(C(=O)c2ccc(Nc3nccn4c(-c5cn(CC#N)nc5C(F)(F)F)cnc34)cc2Cl)CC1` [Example 187, 2-[4-[8-[4-[4-[(2S)-2-aminopropanoyl]piperazine-1-carbonyl]-3-chloroanilino]imidazo[1,2-a]pyrazin-3-yl]-3-(trifluoromethyl)pyrazol-1-yl]acetonitrile] showed an IC90 of 0.159 µM.
`CCc1cc(Nc2nccn3c(-c4cn(C)nc4C(F)F)cnc23)ccc1C(=O)NCCOCCN` [Example 347, N-[2-(2-aminoethoxy)ethyl]-4-[[3-[3-(difluoromethyl)-1-methylpyrazol-4-yl]imidazo[1,2-a]pyrazin-8-yl]amino]-2-ethylbenzamide] showed an IC90 of 1.67 µM.
`N#CCn1cc(-c2cnc3c(Nc4ccc(C(=O)N5CCC(N)CC5)c(Cl)c4)nccn23)c(C(F)(F)F)n1` [Example 202, 2-[4-[8-[4-(4-aminopiperidine-1-carbonyl)-3-chloroanilino]imidazo[1,2-a]pyrazin-3-yl]-3-(trifluoromethyl)pyrazol-1-yl]acetonitrile] was tested, and the IC90 was 0.109 µM.
With `CCc1cc(Nc2nccn3c(-c4cn(CC#N)nc4C(F)(F)F)cnc23)ccc1C(=O)NC` [Example 341, 4-[[3-[1-(cyanomethyl)-3-(trifluoromethyl)pyrazol-4-yl]imidazo[1,2-a]pyrazin-8-yl]amino]-2-ethyl-N-methylbenzamide] the IC90 was 0.223 µM.
With `C[C@H]1CN(C(=O)c2ccc(Nc3nccn4c(-c5c[nH]nc5C(F)(F)F)cnc34)cc2Cl)CCN1` [Example 321, [2-chloro-4-[[3-[3-(trifluoromethyl)-1H-pyrazol-4-yl]imidazo[1,2-a]pyrazin-8-yl]amino]phenyl]-[(3S)-3-methylpiperazin-1-yl]methanone] the IC90 was 0.901 µM.

Same assay, conditions: strain ATCC 17961, OD600 growth over 16 h, read-out: A. baumannii ATCC 17961 IC90
`C#CCn1cc(-c2cnc3c(Nc4ccc(C(=O)N[C@H](C)CNC(=O)OC(C)(C)C)c(CC)c4)nccn23)c(C(F)(F)F)n1` [Example 128, tert-butyl N-[(2R)-2-[[2-ethyl-4-[[3-[1-prop-2-ynyl-3-(trifluoromethyl)pyrazol-4-yl]imidazo[1,2-a]pyrazin-8-yl]amino]benzoyl]amino]propyl] carbamate] gave an IC90 of 0.659 µM.
`N#CCCn1cc(-c2cnc3c(Nc4ccc(C(=O)N5CCN(C(=O)NC6CNC6)CC5)c(Cl)c4)nccn23)c(C(F)(F)F)n1` [Example 246, N-(azetidin-3-yl)-4-[2-chloro-4-[[3-[1-(2-cyanoethyl)-3-(trifluoromethyl)pyrazol-4-yl]imidazo[1,2-a]pyrazin-8-yl]amino]benzoyl] piperazine-1-carboxamide formate] showed an IC90 of 0.533 µM.
